Where two headings read alike, the source gives them in different places.
Key:
HCT-116 = details: HCT-116

C=C1C(=O)O[C@H]2[C@H]1CC/C(COC(=O)c1cc3ccccc3[nH]1)=C\CC[C@@]1(C)O[C@@H]21 [BS-1-28]
Percent Growth (HCT-116; Log10 Concentration −4.0): −91% | Percent Growth (HCT-116; Log10 Concentration −5.0): −94% | Percent Growth (HCT-116; Log10 Concentration −6.0): −62% | Percent Growth (HCT-116; Log10 Concentration −7.0): 96% | Percent Growth (HCT-116; Log10 Concentration −8.0): 97% | GI50 (HCT-116; NCI five dose): 0.196 µM | TGI (HCT-116; NCI five dose): 4.06E−7 | CC50 (M14): 5.76 µM | Percent Growth (M14; M14, Log10 Concentration −4.0): −92% | Percent Growth (M14; M14, Log10 Concentration −5.0): −80% | Percent Growth (M14; M14, Log10 Concentration −6.0): 46% | Percent Growth (M14; M14, Log10 Concentration −7.0): 87% | Percent Growth (M14; M14, Log10 Concentration −8.0): 88% | GI50 (M14; M14, NCI five dose): 0.814 µM | TGI (M14; M14, NCI five dose): 2.32E−6 | CC50 (KM12): 15.6 µM | Percent Growth (KM12; KM12, Log10 Concentration −4.0): −82% | Percent Growth (KM12; KM12, Log10 Concentration −5.0): −42% | Percent Growth (KM12; KM12, Log10 Concentration −6.0): 92% | Percent Growth (KM12; KM12, Log10 Concentration −7.0): 96% | Percent Growth (KM12; KM12, Log10 Concentration −8.0): 93% | GI50 (KM12; KM12, NCI five dose): 2.05 µM | TGI (KM12; KM12, NCI five dose): 4.84E−6 | CC50 (SF-268): 6.5 µM | Percent Growth (SF-268; SF-268, Log10 Concentration −4.0): −85% | Percent Growth (SF-268; SF-268, Log10 Concentration −5.0): −81% | Percent Growth (SF-268; SF-268, Log10 Concentration −6.0): 83% | Percent Growth (SF-268; SF-268, Log10 Concentration −7.0): 96% | Percent Growth (SF-268; SF-268, Log10 Concentration −8.0): 98% | GI50 (SF-268; SF-268, NCI five dose): 1.59 µM | TGI (SF-268; SF-268, NCI five dose): 3.22E−6 | CC50 (SK-MEL-28): 5.74 µM | Percent Growth (SK-MEL-28; SK-MEL-28, Log10 Concentration −4.0): −93% | Percent Growth (SK-MEL-28; SK-MEL-28, Log10 Concentration −5.0): 47% | Percent Growth (SK-MEL-28; SK-MEL-28, Log10 Concentration −6.0): 67% | Percent Growth (SK-MEL-28; SK-MEL-28, Log10 Concentration −7.0): 101% | Percent Growth (SK-MEL-28; SK-MEL-28, Log10 Concentration −8.0): 90% | GI50 (SK-MEL-28; SK-MEL-28, NCI five dose): 1.28 µM | TGI (SK-MEL-28; SK-MEL-28, NCI five dose): 2.72E−6 | CC50 (NCI-H322M): 6.47 µM | Percent Growth (NCI-H322M; NCI-H322M, Log10 Concentration −4.0): −89% | Percent Growth (NCI-H322M; NCI-H322M, Log10 Concentration −5.0): −82% | Percent Growth (NCI-H322M; NCI-H322M, Log10 Concentration −6.0): 88% | Percent Growth (NCI-H322M; NCI-H322M, Log10 Concentration −7.0): 95% | Percent Growth (NCI-H322M; NCI-H322M, Log10 Concentration −8.0): 81% | GI50 (NCI-H322M; NCI-H322M, NCI five dose): 1.68 µM | TGI (NCI-H322M; NCI-H322M, NCI five dose): 3.29E−6 | CC50 (NCI-H460): 7.75 µM | Percent Growth (NCI-H460; NCI-H460, Log10 Concentration −4.0): −75% | Percent Growth (NCI-H460; NCI-H460, Log10 Concentration −5.0): −67% | Percent Growth (NCI-H460; NCI-H460, Log10 Concentration −6.0): 86% | Percent Growth (NCI-H460; NCI-H460, Log10 Concentration −7.0): 101% | Percent Growth (NCI-H460; NCI-H460, Log10 Concentration −8.0): 166% | GI50 (NCI-H460; NCI-H460, NCI five dose): 1.73 µM | TGI (NCI-H460; NCI-H460, NCI five dose): 3.66E−6 | CC50 (CAKI-1): 4.82 µM | Percent Growth (CAKI-1; CAKI-1, Log10 Concentration −4.0): −100% | Percent Growth (CAKI-1; CAKI-1, Log10 Concentration −5.0): −99% | Percent Growth (CAKI-1; CAKI-1, Log10 Concentration −6.0): 55% | Percent Growth (CAKI-1; CAKI-1, Log10 Concentration −7.0): 90% | Percent Growth (CAKI-1; CAKI-1, Log10 Concentration −8.0): 86% | GI50 (CAKI-1; CAKI-1, NCI five dose): 1.08 µM | TGI (CAKI-1; CAKI-1, NCI five dose): 2.18E−6 | CC50 (SK-OV-3): 11.7 µM | Percent Growth (SK-OV-3; SK-OV-3, Log10 Concentration −4.0): −86% | Percent Growth (SK-OV-3; SK-OV-3, Log10 Concentration −5.0): −47% | Percent Growth (SK-OV-3; SK-OV-3, Log10 Concentration −6.0): 77% | Percent Growth (SK-OV-3; SK-OV-3, Log10 Concentration −7.0): 90% | Percent Growth (SK-OV-3; SK-OV-3, Log10 Concentration −8.0): 82% | GI50 (SK-OV-3; SK-OV-3, NCI five dose): 1.65 µM | TGI (SK-OV-3; SK-OV-3, NCI five dose): 4.47E−6
